Data on nine compounds can be found in ChEMBL document CHEMBL1125053, “Dihydropyrimidine calcium channel blockers. 2. 3-substituted-4-aryl-1,4-dihydro-6-methyl-5-pyrimidinecarboxylic acid esters as potent mimics of dihydropyridines” (J Med Chem, 1990).

This assay deals with Voltage-gated L-type calcium channel (Homo sapiens, UniProt Q13936+Q13698+Q01668+O60840). Nature of the assay: In vitro vasorelaxant activity (calcium channel blocking activity) was determined with potassium-depolarized rabbit thoracic aorta. The class given is functional, tissue-based.
In the case of `CCOC(=O)N1C(=S)N=C(C)/C(=C(/O)OC(C)C)[C@H]1c1cccc([N+](=O)[O-])c1`, the half-inhibitory concentration (IC50) turned out to be 2 nM.

Regarding `CCCN1C(S)=NC(C)=C(C(=O)OCC)C1c1cccc([N+](=O)[O-])c1` (centres undefined), the half-maximal inhibitory concentration (IC50) came to 50 nM.

In the case of `CCOC(=O)C1=C(C)NC(OCC)=C(C(=O)OCC)C1c1cccc([N+](=O)[O-])c1` (centres undefined), the IC50 was 26 nM.

Turning to `CCOC(=O)C1=C(C)NC(SCC)=C(C(=O)OCC)C1c1cccc([N+](=O)[O-])c1` (centres undefined), the IC50 turned out to be 4 nM.

For `CCOC(=O)C1=C(C)NC(SC)=NC1c1cccc([N+](=O)[O-])c1` (centres undefined), the IC50 was 130 nM.

With `CCOC(=O)N1C(=S)N=C(C)/C(=C(/O)OCC)C1c1cccc([N+](=O)[O-])c1` (centres undefined), the concentration for half-maximal inhibition (IC50) is 17 nM.

In the case of `CCOC(=O)N1C(=S)N=C(C)/C(=C(/O)OCC)C1c1ccccc1C(F)(F)F` (centres undefined), the concentration for half-maximal inhibition (IC50) is given as 26 nM.

Consider `CCOC(=O)C1=C(C)N=C(OC)NC1c1cccc([N+](=O)[O-])c1` (centres undefined), for which the IC50 is on record as 710 nM.

For `CCO/C(O)=C1\C(C)=NC(=S)N(C(=O)N(C)C)C1c1cccc([N+](=O)[O-])c1` (centres undefined), the half-maximal inhibitory concentration (IC50) was 270 nM.
